Measurements taken from paper PMC9377102, “Toxicity and toxicokinetics of the ethanol extract of Zuojin formula” (BMC Complementary Medicine and Therapies, 2022).
Read-outs that look alike come from different tables or passages of the source.

How the values were obtained:
[1] = system: CYP3A4, CYP1A2 and CYP2D6; details: cited from earlier work
[2] = Toxicokinetics test in the satellite groups (UPLC-MS/MS of rat plasma); type: in vivo; details: for AUC(0-t) / Cmax / Tmax / half-life: SD, rat, plasma, po; for half-life: read-out: T1/2 mean (converted)
Method: SD rats (5 ~ 6 weeks, 3/group/sex) were randomly allocated to three treatment groups and given the same dosage as those in the repeated toxicity experiment for 28 days. […] Carbamazepine was chosen as the internal standard (IS). The blood samples were centrifuged to obtain plasma. Then, 300 μL of acetonitrile containing 40 ng of IS was added to 100 μL of plasma. After vortexing for 1 min, the mixture was centrifuged at 17,000 rpm for 15 min at 4 °C. The supernatant of each sample was injected into a UPLC–MS/MS system for determination. The injection volume was 1 μL. UPLC–MS analysis was performed on a Thermo Fisher Scientific Ultimate 3000 UPLC system (San Jose, USA) and an API 4000 QTRAP mass spectrometer (Foster City, USA) equipped with an ESI source. The mobile phase consisted of 2 solvents: (A) water containing 0.1% formic acid and (B) 100% acetonitrile. For MS, multiple reaction monitoring (MRM) in positive ion mode was used as the scanning mode for the main components and IS in the plasma samples. The dwell time (DT), collision energy (CE), quadrupole 1 pre-rod bias (Q1) and quadrupole 3 pre-rod bias (Q3) are listed in Table 3.

[3] = female, female rats, Day 1, highest dose (berberine 72.08, epiberberine 7.42, coptisine 7.42, palmatine 18.26, jatrorrhizine 2.80, columbamine 5.93 mg/kg)
[4] = female, female rats, Day 1, middle dose (berberine 24.03, epiberberine 2.47, coptisine 2.47, palmatine 6.09, jatrorrhizine 0.93, columbamine 1.98 mg/kg)
[5] = female, female rats, Day 28, highest dose (berberine 72.08, epiberberine 7.42, coptisine 7.42, palmatine 18.26, jatrorrhizine 2.80, columbamine 5.93 mg/kg)
[6] = female, female rats, Day 28, lowest dose (berberine 8.01, epiberberine 0.82, coptisine 1.38, palmatine 2.03, jatrorrhizine 0.31, columbamine 0.66 mg/kg)
[7] = female, female rats, Day 28, middle dose (berberine 24.03, epiberberine 2.47, coptisine 2.47, palmatine 6.09, jatrorrhizine 0.93, columbamine 1.98 mg/kg)
[8] = male, male rats, Day 1, lowest dose (berberine 8.01, epiberberine 0.82, coptisine 1.38, palmatine 2.03, jatrorrhizine 0.31, columbamine 0.66 mg/kg)
[9] = male, male rats, Day 1, middle dose (berberine 24.03, epiberberine 2.47, coptisine 2.47, palmatine 6.09, jatrorrhizine 0.93, columbamine 1.98 mg/kg)
[10] = male, male rats, Day 28, highest dose (berberine 72.08, epiberberine 7.42, coptisine 7.42, palmatine 18.26, jatrorrhizine 2.80, columbamine 5.93 mg/kg)
[11] = male, male rats, Day 28, lowest dose (berberine 8.01, epiberberine 0.82, coptisine 1.38, palmatine 2.03, jatrorrhizine 0.31, columbamine 0.66 mg/kg)
[12] = male, male rats, Day 28, middle dose (berberine 24.03, epiberberine 2.47, coptisine 2.47, palmatine 6.09, jatrorrhizine 0.93, columbamine 1.98 mg/kg)

## COc1cc2c(cc1O)CC[n+]1cc3c(OC)c(OC)ccc3cc1-2 [jatrorrhizine]
[1]
  Metabolism by CYP3A4, CYP1A2 and CYP2D6: metabolized
[2]; female, 0.4 g/kg, female rats, Day 1, low dose TAZF 0.4 g/kg by gavage, read-out: AUC0-t
  AUC(0-t): 25.6 ± 30 ng·h/mL
[2]; female, 0.4 g/kg, female rats, Day 1, low dose TAZF 0.4 g/kg by gavage, read-out: Cmax
  Cmax: 11 ± 7.79 ng/mL
[2]; female, 0.4 g/kg, female rats, Day 28, low dose TAZF 0.4 g/kg by gavage, read-out: AUC0-t
  AUC(0-t): 23.9 ± 27.7 ng·h/mL
[2]; female, 0.4 g/kg, female rats, Day 28, low dose TAZF 0.4 g/kg by gavage, read-out: Cmax
  Cmax: 11.2 ± 15 ng/mL
[2]; female, 3.7 g/kg, female rats, Day 1, high dose TAZF 3.7 g/kg by gavage, read-out: AUC0-t
  AUC(0-t): 22.1 ± 4.83 ng·h/mL
[2]; female, 3.7 g/kg, female rats, Day 1, high dose TAZF 3.7 g/kg by gavage, read-out: Cmax
  Cmax: 14.8 ± 10.7 ng/mL
[2]; female, 3.7 g/kg, female rats, Day 28, high dose TAZF 3.7 g/kg by gavage, read-out: AUC0-t
  AUC(0-t): 11.4 ± 1.79 ng·h/mL
[2]; female, 3.7 g/kg, female rats, Day 28, high dose TAZF 3.7 g/kg by gavage, read-out: Cmax
  Cmax: 2.08 ± 0.41 ng/mL
[2]; [3]
  Tmax: 0.5 h
  half-life: 3.96 h
[2]; female, female rats, Day 1, highest dose (berberine 72.08, epiberberine 7.42, coptisine 7.42, palmatine 18.26, jatrorrhizine 2.80, columbamine 5.93 mg/kg), read-out: AUC0-t mean
  AUC(0-t): 22.1 ng·h/mL
[2]; female, female rats, Day 1, highest dose (berberine 72.08, epiberberine 7.42, coptisine 7.42, palmatine 18.26, jatrorrhizine 2.80, columbamine 5.93 mg/kg), read-out: Cmax mean
  Cmax: 14.8 ng/mL
[2]; female, female rats, Day 1, lowest dose (berberine 8.01, epiberberine 0.82, coptisine 1.38, palmatine 2.03, jatrorrhizine 0.31, columbamine 0.66 mg/kg), read-out: AUC0-t mean
  AUC(0-t): 25.6 ng·h/mL
[2]; female, female rats, Day 1, lowest dose (berberine 8.01, epiberberine 0.82, coptisine 1.38, palmatine 2.03, jatrorrhizine 0.31, columbamine 0.66 mg/kg), read-out: Cmax mean
  Cmax: 11 ng/mL
[2]; female, female rats, Day 1, lowest dose (berberine 8.01, epiberberine 0.82, coptisine 1.38, palmatine 2.03, jatrorrhizine 0.31, columbamine 0.66 mg/kg)
  half-life: 2.64 h
[2]; [4]
  Tmax: 0.83 h
  half-life: 3.57 h
[2]; female, female rats, Day 1, middle dose (berberine 24.03, epiberberine 2.47, coptisine 2.47, palmatine 6.09, jatrorrhizine 0.93, columbamine 1.98 mg/kg), read-out: AUC0-t mean
  AUC(0-t): 19.9 ng·h/mL
[2]; female, female rats, Day 1, middle dose (berberine 24.03, epiberberine 2.47, coptisine 2.47, palmatine 6.09, jatrorrhizine 0.93, columbamine 1.98 mg/kg), read-out: Cmax mean
  Cmax: 14.6 ng/mL
[2]; [5]
  Tmax: 1.33 h
  half-life: 4.98 h
[2]; female, female rats, Day 28, highest dose (berberine 72.08, epiberberine 7.42, coptisine 7.42, palmatine 18.26, jatrorrhizine 2.80, columbamine 5.93 mg/kg), read-out: AUC0-t mean
  AUC(0-t): 11.4 ng·h/mL
[2]; female, female rats, Day 28, highest dose (berberine 72.08, epiberberine 7.42, coptisine 7.42, palmatine 18.26, jatrorrhizine 2.80, columbamine 5.93 mg/kg), read-out: Cmax mean
  Cmax: 2.08 ng/mL
[2]; [6]
  Tmax: 4.17 h
  half-life: 3.39 h
[2]; female, female rats, Day 28, lowest dose (berberine 8.01, epiberberine 0.82, coptisine 1.38, palmatine 2.03, jatrorrhizine 0.31, columbamine 0.66 mg/kg), read-out: AUC0-t mean
  AUC(0-t): 23.9 ng·h/mL
[2]; female, female rats, Day 28, lowest dose (berberine 8.01, epiberberine 0.82, coptisine 1.38, palmatine 2.03, jatrorrhizine 0.31, columbamine 0.66 mg/kg), read-out: Cmax mean
  Cmax: 11.2 ng/mL
[2]; [7]
  Tmax: 1 h
  half-life: 5.33 h
[2]; female, female rats, Day 28, middle dose (berberine 24.03, epiberberine 2.47, coptisine 2.47, palmatine 6.09, jatrorrhizine 0.93, columbamine 1.98 mg/kg), read-out: AUC0-t mean
  AUC(0-t): 3.87 ng·h/mL
[2]; female, female rats, Day 28, middle dose (berberine 24.03, epiberberine 2.47, coptisine 2.47, palmatine 6.09, jatrorrhizine 0.93, columbamine 1.98 mg/kg), read-out: Cmax mean
  Cmax: 1.29 ng/mL
[2]; male rats, Day 1, highest dose (berberine 72.08, epiberberine 7.42, coptisine 7.42, palmatine 18.26, jatrorrhizine 2.80, columbamine 5.93 mg/kg)
  T1/2 mean: 9.68 h
[2]; male, 0.4 g/kg, male rats, Day 1, low dose TAZF 0.4 g/kg by gavage, read-out: AUC0-t
  AUC(0-t): 52 ± 20.4 ng·h/mL
[2]; male, 0.4 g/kg, male rats, Day 1, low dose TAZF 0.4 g/kg by gavage, read-out: Cmax
  Cmax: 11.8 ± 10.8 ng/mL
[2]; male, 0.4 g/kg, male rats, Day 28, low dose TAZF 0.4 g/kg by gavage, read-out: AUC0-t
  AUC(0-t): 8.62 ± 3.21 ng·h/mL
[2]; male, 0.4 g/kg, male rats, Day 28, low dose TAZF 0.4 g/kg by gavage, read-out: Cmax
  Cmax: 16.4 ± 16 ng/mL
[2]; male, 3.7 g/kg, male rats, Day 1, high dose TAZF 3.7 g/kg by gavage, read-out: AUC0-t
  AUC(0-t): 101 ± 35.3 ng·h/mL
[2]; male, 3.7 g/kg, male rats, Day 1, high dose TAZF 3.7 g/kg by gavage, read-out: Cmax
  Cmax: 17.7 ± 11 ng/mL
[2]; male, 3.7 g/kg, male rats, Day 28, high dose TAZF 3.7 g/kg by gavage, read-out: AUC0-t
  AUC(0-t): 25.6 ± 6.74 ng·h/mL
[2]; male, 3.7 g/kg, male rats, Day 28, high dose TAZF 3.7 g/kg by gavage, read-out: Cmax
  Cmax: 7.97 ± 7.64 ng/mL
[2]; male, male rats, Day 1, highest dose (berberine 72.08, epiberberine 7.42, coptisine 7.42, palmatine 18.26, jatrorrhizine 2.80, columbamine 5.93 mg/kg)
  Tmax: 4 h
[2]; male, male rats, Day 1, highest dose (berberine 72.08, epiberberine 7.42, coptisine 7.42, palmatine 18.26, jatrorrhizine 2.80, columbamine 5.93 mg/kg), read-out: AUC0-t mean
  AUC(0-t): 101 ng·h/mL
[2]; male, male rats, Day 1, highest dose (berberine 72.08, epiberberine 7.42, coptisine 7.42, palmatine 18.26, jatrorrhizine 2.80, columbamine 5.93 mg/kg), read-out: Cmax mean
  Cmax: 17.7 ng/mL
[2]; [8]
  Tmax: 10 h
  half-life: 52.9 h
[2]; male, male rats, Day 1, lowest dose (berberine 8.01, epiberberine 0.82, coptisine 1.38, palmatine 2.03, jatrorrhizine 0.31, columbamine 0.66 mg/kg), read-out: AUC0-t mean
  AUC(0-t): 52 ng·h/mL
[2]; male, male rats, Day 1, lowest dose (berberine 8.01, epiberberine 0.82, coptisine 1.38, palmatine 2.03, jatrorrhizine 0.31, columbamine 0.66 mg/kg), read-out: Cmax mean
  Cmax: 11.8 ng/mL
[2]; [9]
  Tmax: 1.83 h
  half-life: 68 h
[2]; male, male rats, Day 1, middle dose (berberine 24.03, epiberberine 2.47, coptisine 2.47, palmatine 6.09, jatrorrhizine 0.93, columbamine 1.98 mg/kg), read-out: AUC0-t mean
  AUC(0-t): 74.5 ng·h/mL
[2]; male, male rats, Day 1, middle dose (berberine 24.03, epiberberine 2.47, coptisine 2.47, palmatine 6.09, jatrorrhizine 0.93, columbamine 1.98 mg/kg), read-out: Cmax mean
  Cmax: 15.4 ng/mL
[2]; [10]
  Tmax: 1.17 h
  half-life: 4.48 h
[2]; male, male rats, Day 28, highest dose (berberine 72.08, epiberberine 7.42, coptisine 7.42, palmatine 18.26, jatrorrhizine 2.80, columbamine 5.93 mg/kg), read-out: AUC0-t mean
  AUC(0-t): 25.6 ng·h/mL
[2]; male, male rats, Day 28, highest dose (berberine 72.08, epiberberine 7.42, coptisine 7.42, palmatine 18.26, jatrorrhizine 2.80, columbamine 5.93 mg/kg), read-out: Cmax mean
  Cmax: 7.97 ng/mL
[2]; [11]
  Tmax: 0.83 h
  half-life: 11.1 h
[2]; male, male rats, Day 28, lowest dose (berberine 8.01, epiberberine 0.82, coptisine 1.38, palmatine 2.03, jatrorrhizine 0.31, columbamine 0.66 mg/kg), read-out: AUC0-t mean
  AUC(0-t): 8.62 ng·h/mL
[2]; male, male rats, Day 28, lowest dose (berberine 8.01, epiberberine 0.82, coptisine 1.38, palmatine 2.03, jatrorrhizine 0.31, columbamine 0.66 mg/kg), read-out: Cmax mean
  Cmax: 16.4 ng/mL
[2]; [12]
  Tmax: 12 h
  half-life: 2.72 h
[2]; male, male rats, Day 28, middle dose (berberine 24.03, epiberberine 2.47, coptisine 2.47, palmatine 6.09, jatrorrhizine 0.93, columbamine 1.98 mg/kg), read-out: AUC0-t mean
  AUC(0-t): 33.3 ng·h/mL
[2]; male, male rats, Day 28, middle dose (berberine 24.03, epiberberine 2.47, coptisine 2.47, palmatine 6.09, jatrorrhizine 0.93, columbamine 1.98 mg/kg), read-out: Cmax mean
  Cmax: 7.78 ng/mL
[2]; rats, oral TAZF
  Systemic exposure after 28 days of administration vs single administration: much lower
